The results in this text go back to patent publication US8318184B2, “MGLU2 agonists” (Eli Lilly and Company, priority 2009, dated 2012).

Structures are written as SMILES.

One data set has as its system Sprague-Dawley rats. In words: Reversal of Phencyclidine (PCP)-Induced Hyperlocomotor Activity in Rats. Type of data set: in vivo. The conditions noted are these: Rattus norvegicus. The source says: Administration of NMDA receptor antagonists, such as ketamine or phencyclidine (PCP), produces psychotomimetic-like effects in humans that are similar to those symptoms observed in patients with schizophrenia.
Motor activity is monitored by placing individual male, Sprague-Dawley (Harlan, Indianapolis, Ind.) rats in transparent, plastic shoe-box cages of the dimensions 45×25×20 cm, with 1 cm depth of wood chips as bedding, and a metal grill on top of the cage. Motor monitors (Kinder Scientific) consist of a rectangular rack of 12 photobeams arranged in an 8×4 formation, (or a high density grouping of 22 in a 15×7 pattern) at a height of 5 cm, with a second rack (for measuring rearing behaviors) at a height of 15 cm. The shoe box cage is placed inside of these racks, with the racks on a 3 foot high tabletop in an isolated room. A compound of the present invention is dosed (intraperitoneal route (i.p.), non-prodrug) within a range of 0.3-10 mg/kg, 30 minutes prior to a 5 mg/kg challenge dose of phencyclidine (PCP). A compound of the present invention is dosed (oral route, prodrug) within a range of 0.3-30 mg/kg, in overnight fasted rats, 4 hours prior to a 5 mg/kg challenge dose of PCP. On the test day, rats are placed in the test cage and allowed to acclimate for 30 minutes prior to PCP challenge; rats are monitored for an additional 60 minutes following PCP administration.
Data analysis and ED50 calculations are conducted using GraphPad Prism (San Diego, Calif. USA). Power analyses have determined that 8-10 rats per group are needed to have appropriate statistical power for detecting treatment differences (power=0.8). A one-way analysis of variance (ANOVA) with a post-hoc Dunnett's multiple comparison test is conducted on the total 60 minute locomotor activity. ED50 calculations are performed using non-linear regression curve fitting on percent reversal transformed data for each dose.

The next data set deals with Fischer F-344 rats. In words: Attenuation of Stress-Induced Hyperthermia in Rats. The conditions noted are these: dose producing 35% reduction in stress-induced hyperthermic response. Type of data set: in vivo, rat. The source says:
In many anxiety disorders, hyperthermia occurs as part of the pathology and is considered a symptom of the disease. Compounds which attenuate stress-induced hyperthermia in animals are believed to be useful in treating anxiety disorders in humans. Generalized anxiety disorder is an example of such disorders that may be treated with such compounds. The conventional and minimally-invasive method for analyzing stress-induced hyperthermia is by measuring body temperature, and stress-induced increases in body temperature, via rectal thermometer. Male Fischer F-344 rats (Harlan, Indianapolis, Ind., USA) weighing between 275-350 g are tested. All animals are individually-housed with food and automated water available ad libitum, and maintained on a 12 h light/dark cycle (lights on at 06:00). Animals are fasted for approximately 12-18 hours before the experiment, which is conducted during the light phase. Rats are dosed two hours prior to the experiment by either intraperitoneal (i.p., non-prodrug) or per os (p.o., prodrug) route of administration in a dose volume of 1 mL/kg. […]
After the pretreatment period, rats are taken individually to a brightly lit adjacent room where baseline body temperatures are determined by insertion of a rectal probe lubricated with mineral oil. Body temperature is assessed using a […] […] Ten minutes later a second body temperature measurement is recorded (T2). […]

The next data set has as its system NIH-Swiss mice. In words: Forced Swim Test in mice. It is filed as in vivo, mouse. The settings on record: i.p. How it is done: In this assay, mechanisms with purported antidepressant-like activity decrease immobility in a brief inescapable forced swim episode.
The forced-swim test is conducted with both mice (male, NIH-Swiss mice, 20-25 g, Harlan Sprague-Dawley, Indianapolis, Ind.) and rats (male, Sprague-Dawley rats, 250-350 g, Harlan Sprague-Dawley, Indianapolis, Ind.). Mice are placed in clear plastic cylinders (diameter 10 cm; height: 25 cm) filled to 6 cm with 22-25° C. water for six min. The duration of immobility is recorded during the last 4 min of a six-minute trial. Rats are treated similarly, albeit in clear plastic cylinders of larger dimensions (diameter: 18 cm; height: 40 cm) filled with water (22-25° C.) to a depth of 16 cm for 15 min. Additionally, mice receive a single forced swim exposure; rats receive two, 5-min sessions separated by 24 hours (data is recorded only on Day 2). […] Imipramine is used as a positive control for these studies. […] Compounds are in a clear solution. The amount of time spent immobile (defined as movements only necessary to keep the subject's head above water) is the dependent measure and recorded by an observer blinded to the drug treatment of the subjects. Data are analyzed by post-hoc Dunnett's test with alpha level set at 0.05. The mouse version of the forced swim test is most commonly used.

For data set [1] the following is noted: 1 h, 10 µM, pH 7.4.
Procedure: Frozen human duodenum intestinal homogenates (1:2 tissue:buffer ratio using 100 mM Tris Phosphate buffer, pH 7.4) are obtained from Celsius In Vitro Technologies (Baltimore, Md.) that were both phenylmethylsulphonylfluoride (PMSF) and EDTA free.
Each lot of human duodenum is obtained from a single donor and the intestine is scraped and the sections are frozen separate. All original tissue collections are performed at 4° C. and immediately frozen at −70° C. Human intestinal homogenates are thawed and diluted to a final protein concentration of 0.5 mg/mL in 100 mM PBS buffer, pH 7.4 immediately prior to the incubations.
Incubations are conducted in 96-well plates and all prodrug compounds are run in duplicate on each day. Stock prodrug compound solutions are prepared in water at a concentration of 1 mM. A 200 μL aliquot of 0.5 mg/mL intestinal homogenate and 196 μL of 100 mM PBS buffer are placed in a 96-well plate in a 37° C. water bath. Using a 96-well pipettor, 4 μL of the 1 mM prodrug compound solution is transferred into the homogenate. Immediately after addition of the prodrug compound (time zero) and after 1 hour incubation, 50 μL samples of the incubation mixture are removed using an automated disposable simultaneous 96 well pipettor and added directly to 200 μL of methanol quench solution containing 100 ng/mL of Internal Standard. The samples are then centrifuged at 3500 rpm for 5 minutes at 10° C. The supernatant (200 μL) is transferred to a final 96 well PCR plate and sealed for analysis by LC/MS/MS.
Concentrations of hydrolyzed compounds of the present invention in the incubation mixtures are determined using LC/MS/MS detection on a Sciex API 4000 quadrapole mass spectrometer with Analyst version 1.4.2, TurboIonSpray, positive ionization, and Selected Reaction Monitoring (SRM). A Waters Atlantis® T3 (20×2.1 mm, 5 μM) HPLC column is used at ambient temperature with a flow rate of 1.0 mL/min and a mobile phase gradient from 0.1% mobile phase A to 99% mobile phase A. Mobile phase A is 1000:5 water:heptafluorobuteric acid and mobile phase B is 1:1 methanol:glacial acetic acid.
Concentrations of hydrolyzed compounds of the present invention in the intestinal incubation mixtures are determined from standard curves prepared by replicate two-fold dilution starting at 10 μM in 100 mM PBS pH 7.4 and subsequently quenched with methanol-internal standard solution identical to the samples. Averages and standard deviations are calculated using Microsoft® Office Excel® 2007. Amount of hydrolysis is determined as a molar percentage of compound formed relative to prodrug compound concentration added. […] Final values are then normalized relative to the formation of Internal Compound Drug A.
Setting [2] is: mean and standard error of the mean.

Turning to `N[C@@]1(C(=O)O)C[C@@H](Sc2nnc[nH]2)[C@H]2[C@H](C(=O)O)[C@H]21` [Example 1, (1R,2S,4R,5R,6R)-2-Amino-4-(4H-1,2,4-triazol-3-ylsulfanyl)bicyclo[3.1.0]hexane-2,6-dicarboxylic acid], in the data set on Sprague-Dawley rats (0.5 h, i.p., 30 minutes prior to 5 mg/kg PCP), the median effective dose (ED50) amounted to 1.23 mg/kg. This molecule also came in with a T35 with Fischer F-344 rats (i.p.) of 1.27 mg/kg. In the data set on NIH-Swiss mice (60 min prior to testing, single study), this molecule gave an ED60 of 10.5 mg/kg. The antidepressant-like effects entry in the data set on NIH-Swiss mice (F4,39=9.9, p<0.0001) is listed as “prominent antidepressant-like effects”. In the data set with NIH-Swiss mice (at the 10 mg/kg dose, single study), the “maximal effect, % of vehicle immobility levels” value turned out to be 61%. In the data set on NIH-Swiss mice (setting [2]), the “ED60, mean of four separate replications” value turned out to be 6.1 ± 2.5 mg/kg and the “maximal effect, % of vehicle-treated immobility levels, four separate replications” value stood at 49.5±11.5%.
As to `C[C@H](N)C(=O)N[C@@]1(C(=O)O)C[C@@H](Sc2nnc[nH]2)[C@H]2[C@H](C(=O)O)[C@H]21.Cl` [Example 2, (1R,2S,4R,5R,6R)-2-[[(2S)-2-Aminopropanoyl]amino]-4-(1H-1,2,4-triazol-3-ylsulfanyl)bicyclo[3.1.0]hexane-2,6-dicarboxylic acid hydrochloride], the ED50 with Sprague-Dawley rats (p.o., overnight fasted, 4 hours prior to 5 mg/kg PCP) came to 2.94 mg/kg. This molecule also gave a T35 in the data set with Fischer F-344 rats (p.o.) of 16.2 mg/kg. Further, the “human intestinal hydrolysis relative to Internal Prodrug Compound A” value in data set [1] was determined as 61%.
